Results: patent US8097625B2, “Combination of sedative and a neurotransmitter modulator, and methods for improving sleep quality and treating depression” (priority 2003, dated 2012)

Assays:
Type in all cases: in vivo, human
[1] = tested on: subjects with insomnia related to major depressive disorder; experiment: DREAMDD clinical study: Clinical Global Impression (Severity 1=normal to 7=most extremely depressed; Global Improvement 1=very much improved to 7=very much worse); conditions: for CGI - Global Improvement, Mean (SD) / CGI - Global Improvement, Median / CGI - Severity, Change from Baseline, Mean (SD) / CGI - Severity, Change from Baseline, Median / CGI - Severity, Observed Value, Mean (SD) / CGI - Severity, Observed Value, Median / CGI - Severity, Change from Baseline, Least Squares Mean (SE): ITT; for CGI - Severity, Change from Baseline, Least Squares Mean (SE): ANCOVA
Experimental: Depression Response to Eszopiclone in Adults With Major Depressive Disorder (DREAMDD): A Randomized, Double-Blind, Placebo-Controlled, Parallel-Group, 8-Week, Safety and Efficacy Study of Eszopiclone 3 mg Compared to Placebo in Subjects with Insomnia Related to Major Depressive Disorder
This study was a double-blind randomized, placebo-controlled, parallel group study. […] All subjects must satisfy DSM-IV criteria for insomnia related to major depression.
Sleep, Depression, and Productivity Questionnaires and Clinical Global Impression: The following questionnaires were administered as listed below. • Epworth Sleepiness Scale (ESS): ESS was completed by the subject at Visits 2-10. The ESS is a subjective assessment of the likelihood of falling asleep in various situations. • Insomnia Severity Index (ISI): ISI was completed by the subject at Visits 3, 5, 7, 9 and 10. The ISI is a subjective assessment of sleep quality, restedness/refreshness upon arising, daytime fatigue, attention/concentration and relationship and mood disturbances. • Work Limitations Questionnaire (WLQ): WLQ was completed by the subject at Visits 3, 5, 7, 9, and 10. The WLQ is a validated self-report instrument for measuring the degree to which chronic health problems interfere with ability to perform job roles, addressing the content of the job through a demand-level methodology. • Hamilton Depression-17: HAM-D-17 was administered via IVRS at screening and rated by a trained clinician at Visits 3, 7, 9, and 10. • SF-36: SF-36 was completed by the subject at Visits 3, 7, 9 and 10. The SF-36 represents multiple operational definitions of health, including function and dysfunction, distress and well-being, objective reports and subjective ratings, and both favorable and unfavorable self-evaluations of general health status. • Clinical Global Impression (CGI): CGI was completed by the investigator at Visits 3-10 The CGI is the investigator's subjective assessment of improvement in the subject's depressive symptoms. The response on the CGI at Visit 7 (Week 4 of double-blind treatment) was used by the investigator to assess the need for increasing the dose of fluoxetine to 40 mg daily (in the morning). […] Study Conduct
Clinical Global Impression: In this test, a medical professional rates the patient's depression and whether the improvement in depression is due to the drug treatment. Question 1) Severity: Considering your total clinical experience with this particular population, how depressed is the patient at this time? Respond by indicating 1=normal, not at all depressed, 2=borderline depressed, 3=mildly depressed, 4=moderately depressed, 5=markedly depressed, 6=severely depressed, or 7=among the most extremely depressed patients. Question 2) Global Improvement: Rate total improvement whether or not, in your judgment, it is due entirely to drug treatment. Compared to his/her condition at Visit 3, how much has he/she changed?
Methods: Patients who met DSM-IV criteria for new MDD and insomnia received fluoxetine 20 mg QAM plus either eszopiclone 3 mg (n=275) or placebo (n=270) nightly for 8 weeks. Efficacy was assessed using HAMD17 and Clinical Global Impression Improvement (CGI-I) and Severity (CGI-S). Response=50% decrease from baseline HAMD17; remission=HAMD17≦7.

[2] = DREAMDD clinical study: subject disposition; conditions: of 270 randomized; 3 mg nightly + fluoxetine
Text: Subjects who discontinued early for any reason were replaced.
Subject Disposition and Drug Exposure: Subject disposition was summarized and presented for the number and percentage of subjects, who were screened, randomized, received treatment, completed the study, and discontinued early (including reasons for discontinuations). For each subject, the number of doses taken was computed from the study drug dispensation and accountability CRF records obtained at each visit, assuming that subjects took their study drug medication evenly throughout the between-visits periods. The extent of exposure to the double-blind medication as well as the number of doses taken during the double-blind treatment period was summarized with descriptive statistics and presented by treatment group.

[3] = DREAMDD clinical study: tolerability and adverse events; conditions: 8 weeks
Experimental: Safety was assessed by physical examinations, a standard 12-lead ECG, vital signs, clinical laboratory assessments and AE reporting.
Adverse Events (AEs): Subjects were queried in a non-leading manner, without specific prompting (e.g., “How are you feeling?”) to assess whether they are suffering from any adverse events.
Adverse Events: All adverse experiences were coded using the COSTART dictionary (Coding Symbols for a thesaurus of Adverse Event Terms; version 5.0, 1995). Treatment emergent adverse experiences was defined as 1) AEs that occurred or worsened (increased in severity and/or frequency) on or after the first dose of study medication, 2) AEs with a missing start data and a stop date on or after the first dose of study medication, or 3) AEs with both a missing start and stop date. Treatment emergent AEs was summarized by treatment and by COSTART body system and preferred term. AEs that occurred within 14 days after treatment discontinuation was considered treatment-emergent AEs.

[4] = Visit 4 (Week 1), 3 mg nightly + fluoxetine
[5] = Visit 5 (Week 2), 3 mg nightly + fluoxetine
[6] = Visit 6 (Week 3), 3 mg nightly + fluoxetine
[7] = Visit 7 (Week 4), 3 mg nightly + fluoxetine
[8] = Visit 8 (Week 6), 3 mg nightly + fluoxetine
[9] = Visit 9 (Week 8), 3 mg nightly + fluoxetine
[10] = Visit 10 (EOT; Week 10, after single-blind wash-out), eszopiclone 3 mg group

Question: With `CN1CCN(C(=O)OC2c3nccnc3C(=O)N2c2ccc(Cl)cn2)CC1` (single isomer, unassigned; (+)) [Eszopiclone, (+) 6-(5-chloro-2-pyridinyl)-6,7-dihydro-7-oxo-5H-pyrrolo[3,4b]pyrazin-5-yl 4-methylpiperazine-1-carboxylate] as the molecule, how does the “CGI - Global Improvement, Mean (SD)” value [1, 4] read?
Answer: 3.3 (0.8)

Question: And the “CGI - Global Improvement, Median” value [1, 4]?
Answer: 3.0

Question: What about the “CGI - Severity, Change from Baseline, Mean (SD)” value (from here on “CGI - Severity, Change … (SD)”) [1, 4] of the same molecule?
Answer: −0.3 (0.7)

Question: What about the “CGI - Severity, Change from Baseline, Median” value [1, 4] of the same molecule?
Answer: 0.0

Question: And the “CGI - Severity, Observed Value, Mean (SD)” value [1, 4]?
Answer: 4.0 (0.7)

Question: And the “CGI - Severity, Observed Value, Median” value [1, 4]?
Answer: 4.0

Question: And the “CGI - Severity, Change from Baseline, Least Squares Mean (SE)” value (from here on “CGI - Severity, Change … (SE)”) [1, 4]?
Answer: −0.3 (0.0)

Question: What about the “CGI - Global Improvement, Mean (SD)” value [1, 5] of the same molecule?
Answer: 2.9 (0.8)

Question: What about the “CGI - Global Improvement, Median” value [1, 5] of the same molecule?
Answer: 3.0

Question: What about the “CGI - Severity, Change … (SD)” value [1, 5] of the same molecule?
Answer: −0.8 (0.9)

Question: And the “CGI - Severity, Change from Baseline, Median” value [1, 5]?
Answer: −1.0

Question: What about the “CGI - Severity, Observed Value, Mean (SD)” value [1, 5] of the same molecule?
Answer: 3.6 (0.9)

Question: And the “CGI - Severity, Observed Value, Median” value [1, 5]?
Answer: 4.0

Question: And the “CGI - Severity, Change … (SE)” value [1, 5]?
Answer: −0.8 (0.1)

Question: And the “CGI - Global Improvement, Mean (SD)” value [1, 6]?
Answer: 2.6 (0.9)

Question: And the “CGI - Global Improvement, Median” value [1, 6]?
Answer: 3.0

Question: What about the “CGI - Severity, Change … (SD)” value [1, 6] of the same molecule?
Answer: −1.1 (1.0)

Question: What about the “CGI - Severity, Change from Baseline, Median” value [1, 6] of the same molecule?
Answer: −1.0

Question: And the “CGI - Severity, Observed Value, Mean (SD)” value [1, 6]?
Answer: 3.2 (1.0)

Question: And the “CGI - Severity, Observed Value, Median” value [1, 6]?
Answer: 3.0

Question: And the “CGI - Severity, Change … (SE)” value [1, 6]?
Answer: −1.1 (0.1)

Question: And the “CGI - Global Improvement, Mean (SD)” value [1, 7]?
Answer: 2.4 (1.0)

Question: What about the “CGI - Global Improvement, Median” value [1, 7] of the same molecule?
Answer: 2.0

Question: What about the “CGI - Severity, Change … (SD)” value [1, 7] of the same molecule?
Answer: −1.4 (1.1)

Question: What about the “CGI - Severity, Change from Baseline, Median” value [1, 7] of the same molecule?
Answer: −1.0

Question: And the “CGI - Severity, Observed Value, Mean (SD)” value [1, 7]?
Answer: 3.0 (1.1)

Question: What about the “CGI - Severity, Observed Value, Median” value [1, 7] of the same molecule?
Answer: 3.0

Question: What about the “CGI - Severity, Change … (SE)” value [1, 7] of the same molecule?
Answer: −1.3 (0.1)

Question: What about the “CGI - Global Improvement, Mean (SD)” value [1, 8] of the same molecule?
Answer: 1.9 (0.9)

Question: What about the “CGI - Global Improvement, Median” value [1, 8] of the same molecule?
Answer: 2.0

Question: And the “CGI - Severity, Change … (SD)” value [1, 8]?
Answer: −1.8 (1.2)

Question: What about the “CGI - Severity, Change from Baseline, Median” value [1, 8] of the same molecule?
Answer: −2.0

Question: What about the “CGI - Severity, Observed Value, Mean (SD)” value [1, 8] of the same molecule?
Answer: 2.5 (1.0)

Question: And the “CGI - Severity, Observed Value, Median” value [1, 8]?
Answer: 2.5

Question: What about the “CGI - Severity, Change … (SE)” value [1, 8] of the same molecule?
Answer: −1.8 (0.1)

Question: And the “CGI - Global Improvement, Mean (SD)” value [1, 9]?
Answer: 1.9 (1.0)

Question: What about the “CGI - Global Improvement, Median” value [1, 9] of the same molecule?
Answer: 2.0

Question: What about the “CGI - Severity, Change … (SD)” value [1, 9] of the same molecule?
Answer: −1.9 (1.3)

Question: And the “CGI - Severity, Change from Baseline, Median” value [1, 9]?
Answer: −2.0

Question: What about the “CGI - Severity, Observed Value, Mean (SD)” value [1, 9] of the same molecule?
Answer: 2.4 (1.2)

Question: And the “CGI - Severity, Observed Value, Median” value [1, 9]?
Answer: 2.0

Question: What about the “CGI - Severity, Change … (SE)” value [1, 9] of the same molecule?
Answer: −1.8 (0.1)

Question: What about the “CGI - Severity, Change … (SE)” value [1, 10] of the same molecule?
Answer: −2.2 (0.1)

Question: And the “CGI - Global Improvement, Mean (SD)” value [1, 10]?
Answer: 1.6 (0.9)

Question: What about the “CGI - Global Improvement, Median” value [1, 10] of the same molecule?
Answer: 1.0

Question: And the “CGI - Severity, Change … (SD)” value [1, 10]?
Answer: −2.3 (1.2)

Question: What about the “CGI - Severity, Change from Baseline, Median” value [1, 10] of the same molecule?
Answer: −2.0

Question: What about the “CGI - Severity, Observed Value, Mean (SD)” value [1, 10] of the same molecule?
Answer: 2.0 (1.0)

Question: And the “CGI - Severity, Observed Value, Median” value [1, 10]?
Answer: 2.0

Question: And the “CGI-I and CGI-S scores versus placebo” value ([1]; p<0.05, 3 mg nightly + fluoxetine)?
Answer: significantly greater

Question: And the “Subject Disposition: Discontinued, AE” value [2]?
Answer: 17 (6.3) n (%)

Question: What about the “Subject Disposition: Discontinued, Treatment for Insomnia Failure” value [2] of the same molecule?
Answer: 2 (0.7) n (%)

Question: What about the “unpleasant taste compared to placebo” value ([3]; 3 mg QHS + fluoxetine QAM) of the same molecule?
Answer: more common

Question: What about the “drop-outs due to AEs versus placebo” value ([3]; 3 mg nightly + fluoxetine) of the same molecule?
Answer: comparable

Question: And the “tolerability of co-administration with fluoxetine” value ([3]; 3 mg nightly + fluoxetine, MDD and insomnia)?
Answer: well-tolerated
